Paper PMC9005681, “Use of AD Informer Set compounds to explore validity of novel targets in Alzheimer's disease pathology” (Alzheimer's & Dementia : Translational Research & Clinical …, 2022)
“And” between values parts separate entries of the source, which are not always exact repeats. Equal entries are not always repeated. Values belong to the compound of their own block, whether it stands above or below them.

How the values were obtained:
Test in all cases: PDSP GPCR panel primary binding assays at 10 μM
[1] = target: T1, cloned human or rodent CNS receptors, channels, and transporters (PDSP panel) (Homo sapiens, UniProt P08172); conditions: M2, primary assay; for Mean %: mean inhibition; for Inhibition 1: replicate 1; for Inhibition 2: replicate 2; for Inhibition 3: replicate 3; for Inhibition 4: replicate 4
T1 construct: expressed in transfected cells
T1 sequence (P08172 1-466): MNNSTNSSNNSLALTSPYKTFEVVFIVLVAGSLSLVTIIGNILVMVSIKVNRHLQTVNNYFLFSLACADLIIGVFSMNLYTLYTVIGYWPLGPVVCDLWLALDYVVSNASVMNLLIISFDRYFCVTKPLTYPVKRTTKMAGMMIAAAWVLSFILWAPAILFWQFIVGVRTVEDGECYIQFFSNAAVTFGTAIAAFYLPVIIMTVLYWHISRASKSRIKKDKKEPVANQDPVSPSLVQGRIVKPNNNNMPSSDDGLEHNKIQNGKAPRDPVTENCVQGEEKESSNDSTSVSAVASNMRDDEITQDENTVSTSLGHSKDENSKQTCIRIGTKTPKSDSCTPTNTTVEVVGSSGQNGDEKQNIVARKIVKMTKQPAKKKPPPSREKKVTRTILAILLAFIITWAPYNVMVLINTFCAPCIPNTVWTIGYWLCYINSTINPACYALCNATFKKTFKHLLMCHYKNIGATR
Summary of the method: (§1)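 Competition binding with radiolabeled standard ligands, single 10 μM concentration, four replicates. Targets showing over 50% displacement were followed up with 11-point titrations in triplicate.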

[2] = target: T2, cloned human or rodent CNS receptors, channels, and transporters (PDSP panel) (Homo sapiens, UniProt P21728); conditions: primary assay
T2 construct: expressed in transfected cells
Summary of the method: as §1

[3] = target: T3, cloned human or rodent CNS receptors, channels, and transporters (PDSP panel) (Homo sapiens, UniProt P21917); conditions: primary assay
T3 construct: expressed in transfected cells
T3 sequence (P21917 1-419): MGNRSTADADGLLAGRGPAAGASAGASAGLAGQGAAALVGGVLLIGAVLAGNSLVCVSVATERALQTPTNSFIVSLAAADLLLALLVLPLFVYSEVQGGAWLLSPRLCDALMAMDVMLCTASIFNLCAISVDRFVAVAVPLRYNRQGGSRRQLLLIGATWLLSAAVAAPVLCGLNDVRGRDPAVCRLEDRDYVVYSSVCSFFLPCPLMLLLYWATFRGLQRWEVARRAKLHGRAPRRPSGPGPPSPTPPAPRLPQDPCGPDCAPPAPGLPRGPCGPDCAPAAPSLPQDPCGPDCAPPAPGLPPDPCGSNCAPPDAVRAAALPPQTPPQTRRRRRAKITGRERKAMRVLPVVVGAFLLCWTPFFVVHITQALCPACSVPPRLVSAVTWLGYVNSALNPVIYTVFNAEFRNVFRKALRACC
Summary of the method: as §1

[4] = target: T4, cloned human or rodent CNS receptors, channels, and transporters (PDSP panel) (Homo sapiens, UniProt P23975); conditions: primary assay
T4 construct: expressed in transfected cells
Summary of the method: as §1

[5] = target: T5, cloned human or rodent CNS receptors, channels, and transporters (PDSP panel) (Homo sapiens, UniProt P28223); conditions: primary assay
T5 construct: expressed in transfected cells
Summary of the method: as §1

[6] = target: T6, cloned human or rodent CNS receptors, channels, and transporters (PDSP panel) (Homo sapiens, UniProt P46098); conditions: primary assay
T6 construct: expressed in transfected cells
T6 sequence (P46098 24-478): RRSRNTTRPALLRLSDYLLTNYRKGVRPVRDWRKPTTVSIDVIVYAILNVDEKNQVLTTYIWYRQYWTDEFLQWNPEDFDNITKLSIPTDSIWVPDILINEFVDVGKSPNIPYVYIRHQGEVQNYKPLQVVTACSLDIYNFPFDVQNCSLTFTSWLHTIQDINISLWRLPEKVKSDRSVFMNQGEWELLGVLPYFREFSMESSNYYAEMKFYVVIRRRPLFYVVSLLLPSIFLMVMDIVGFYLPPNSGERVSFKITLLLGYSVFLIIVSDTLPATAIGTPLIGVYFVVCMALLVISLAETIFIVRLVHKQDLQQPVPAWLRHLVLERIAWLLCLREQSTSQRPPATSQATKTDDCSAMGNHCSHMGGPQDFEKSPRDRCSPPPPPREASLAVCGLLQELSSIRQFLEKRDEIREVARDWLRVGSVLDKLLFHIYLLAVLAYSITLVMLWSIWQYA
Summary of the method: as §1

[7] = target: T7, cloned human or rodent CNS receptors, channels, and transporters (PDSP panel) (Homo sapiens, UniProt P50406); conditions: primary assay
T7 construct: expressed in transfected cells
Summary of the method: as §1

T2 sequence (P21728 whole entry): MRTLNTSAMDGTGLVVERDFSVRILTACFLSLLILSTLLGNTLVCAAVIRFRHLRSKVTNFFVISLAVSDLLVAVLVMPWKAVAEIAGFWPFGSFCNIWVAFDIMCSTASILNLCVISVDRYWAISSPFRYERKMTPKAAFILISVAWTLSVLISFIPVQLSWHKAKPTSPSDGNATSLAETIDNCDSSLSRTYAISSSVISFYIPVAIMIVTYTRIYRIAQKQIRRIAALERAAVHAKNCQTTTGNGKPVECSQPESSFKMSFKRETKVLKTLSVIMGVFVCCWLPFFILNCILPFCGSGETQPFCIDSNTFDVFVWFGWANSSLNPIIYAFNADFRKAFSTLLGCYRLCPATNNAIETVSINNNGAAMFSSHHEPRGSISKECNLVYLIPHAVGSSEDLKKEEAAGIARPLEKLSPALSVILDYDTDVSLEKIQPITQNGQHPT
T4 sequence (P23975 whole entry): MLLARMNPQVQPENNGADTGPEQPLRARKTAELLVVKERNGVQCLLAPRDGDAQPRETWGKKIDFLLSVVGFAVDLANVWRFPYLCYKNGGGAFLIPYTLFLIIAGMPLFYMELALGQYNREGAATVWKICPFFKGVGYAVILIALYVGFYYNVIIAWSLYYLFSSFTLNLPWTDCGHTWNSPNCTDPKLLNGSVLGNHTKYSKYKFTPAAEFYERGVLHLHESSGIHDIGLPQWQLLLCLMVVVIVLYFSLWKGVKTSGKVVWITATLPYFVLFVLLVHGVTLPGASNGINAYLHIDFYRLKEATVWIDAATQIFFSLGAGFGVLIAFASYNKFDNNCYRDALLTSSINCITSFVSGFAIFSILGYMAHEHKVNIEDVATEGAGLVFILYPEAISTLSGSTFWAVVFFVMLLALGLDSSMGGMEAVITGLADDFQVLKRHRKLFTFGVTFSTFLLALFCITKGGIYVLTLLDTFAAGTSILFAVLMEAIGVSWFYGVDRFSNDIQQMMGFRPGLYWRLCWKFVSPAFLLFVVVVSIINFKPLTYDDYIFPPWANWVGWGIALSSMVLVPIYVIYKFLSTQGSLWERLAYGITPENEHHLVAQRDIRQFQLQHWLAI
T7 sequence (P50406 whole entry): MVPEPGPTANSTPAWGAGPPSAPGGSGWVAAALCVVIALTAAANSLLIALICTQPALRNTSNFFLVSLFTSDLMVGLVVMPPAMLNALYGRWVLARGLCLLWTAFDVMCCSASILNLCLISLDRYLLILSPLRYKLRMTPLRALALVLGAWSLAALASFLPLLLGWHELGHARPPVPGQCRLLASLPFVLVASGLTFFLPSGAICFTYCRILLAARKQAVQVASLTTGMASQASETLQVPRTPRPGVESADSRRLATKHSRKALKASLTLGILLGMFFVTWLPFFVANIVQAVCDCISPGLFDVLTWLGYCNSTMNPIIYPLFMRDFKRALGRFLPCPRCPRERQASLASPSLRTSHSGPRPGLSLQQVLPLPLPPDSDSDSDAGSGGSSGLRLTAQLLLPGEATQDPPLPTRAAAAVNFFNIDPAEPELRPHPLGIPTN
T5 sequence (P28223 whole entry): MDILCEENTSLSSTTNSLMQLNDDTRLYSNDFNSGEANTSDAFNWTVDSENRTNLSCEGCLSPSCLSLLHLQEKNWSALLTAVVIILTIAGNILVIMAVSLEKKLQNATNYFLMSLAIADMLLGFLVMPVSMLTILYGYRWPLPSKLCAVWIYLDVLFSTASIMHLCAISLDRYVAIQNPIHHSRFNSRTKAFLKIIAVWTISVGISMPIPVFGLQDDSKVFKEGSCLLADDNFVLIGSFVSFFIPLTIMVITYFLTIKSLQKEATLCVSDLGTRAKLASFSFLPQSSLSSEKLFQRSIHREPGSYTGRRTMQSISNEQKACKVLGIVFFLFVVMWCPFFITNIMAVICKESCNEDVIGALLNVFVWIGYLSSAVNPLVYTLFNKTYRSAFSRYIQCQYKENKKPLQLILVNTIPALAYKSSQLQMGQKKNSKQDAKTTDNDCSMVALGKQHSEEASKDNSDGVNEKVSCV

Mean % [1]: -9.25% | Inhibition 1 [1]: -13.73% | Inhibition 2 [1]: -23.07% | Inhibition 3 [1]: -14.72% | Inhibition 4 [1]: 14.53% | Mean % ([2]; D1, mean inhibition): 9.96% | Inhibition 1 ([2]; D1, replicate 1): 12.39% | Inhibition 2 ([2]; D1, replicate 2): 11.9% | Inhibition 3 ([2]; D1, replicate 3): 10.77% | Inhibition 4 ([2]; D1, replicate 4): 4.78% | Mean % ([3]; D4, mean inhibition): 2.7% | Inhibition 1 ([3]; D4, replicate 1): 2.1% | Inhibition 2 ([3]; D4, replicate 2): -2.96% | Inhibition 3 ([3]; D4, replicate 3): 3.54% | Inhibition 4 ([3]; D4, replicate 4): 8.13% | Mean % ([4]; NET, mean inhibition): -0.13% and 6.71% | Inhibition 1 ([4]; NET, replicate 1): 26.63% and -24.8% | Inhibition 2 ([4]; NET, replicate 2): 1.57% and -7.07% | Inhibition 3 ([4]; NET, replicate 3): -2.48% and 7.39% | Inhibition 4 ([4]; NET, replicate 4): -26.22% and 51.32% | Mean % ([5]; 5-HT2A, mean inhibition): -5.29% | Inhibition 1 ([5]; 5-HT2A, replicate 1): 5.24% | Inhibition 2 ([5]; 5-HT2A, replicate 2): -8.74% | Inhibition 3 ([5]; 5-HT2A, replicate 3): -13.01% | Inhibition 4 ([5]; 5-HT2A, replicate 4): -4.63% | Mean % ([6]; 5-HT3, mean inhibition): 8.2% | Inhibition 1 ([6]; 5-HT3, replicate 1): 4.04% | Inhibition 2 ([6]; 5-HT3, replicate 2): 9.4% | Inhibition 3 ([6]; 5-HT3, replicate 3): -1.71% | Inhibition 4 ([6]; 5-HT3, replicate 4): 21.06% | Mean % ([7]; 5-HT6, mean inhibition): -6.87% | Inhibition 1 ([7]; 5-HT6, replicate 1): 12.58% | Inhibition 2 ([7]; 5-HT6, replicate 2): -11.55% | Inhibition 3 ([7]; 5-HT6, replicate 3): -17.27% | Inhibition 4 ([7]; 5-HT6, replicate 4): -11.23%
Compound: CNc1nc(C)nc(N[C@H]2CCC[C@@H](C(=O)NCc3ccc(C#N)cc3C(F)(F)F)C2)n1 [UNC10302679A, GSK2256294A]

Compound: O=c1oc2ccccc2cc1-c1cn2cc(Cc3ccc(F)cc3)sc2n1 [UNC10302680A, iMDK]
Mean % [1]: -8.2% | Inhibition 1 [1]: -12.5% | Inhibition 2 [1]: -5.38% | Inhibition 3 [1]: -3.9% | Inhibition 4 [1]: -11.03% | Inhibition 1 ([2]; Receptor D1, 10 μM): 5.91% | Inhibition 2 ([2]; Receptor D1, 10 μM): 9.31% | Inhibition 3 ([2]; Receptor D1, 10 μM): -0.89% | Inhibition 4 ([2]; Receptor D1, 10 μM): -9.8% | Mean % ([2]; Receptor D1, 10 μM, mean of Inhibition 1-4): 1.13% | Inhibition 1 ([3]; Receptor D4, 10 μM): -9.94% | Inhibition 2 ([3]; Receptor D4, 10 μM): -4.88% | Inhibition 3 ([3]; Receptor D4, 10 μM): -6.5% | Inhibition 4 ([3]; Receptor D4, 10 μM): 11.95% | Mean % ([3]; Receptor D4, 10 μM, mean of Inhibition 1-4): -2.34% | Mean % ([4]; NET, mean inhibition): 3.1% | Inhibition 1 ([4]; NET, replicate 1): -7.15% | Inhibition 2 ([4]; NET, replicate 2): -15.77% | Inhibition 3 ([4]; NET, replicate 3): -1.08% | Inhibition 4 ([4]; NET, replicate 4): 36.38% | Inhibition 1 ([4]; Receptor NET, 10 μM): 34.12% | Inhibition 2 ([4]; Receptor NET, 10 μM): 0.12% | Inhibition 3 ([4]; Receptor NET, 10 μM): -3.41% | Inhibition 4 ([4]; Receptor NET, 10 μM): -3.8% | Mean % ([4]; Receptor NET, 10 μM, mean of Inhibition 1-4): 6.76% | Inhibition 1 ([5]; Receptor 5-HT2A, 10 μM): 12.31% | Inhibition 2 ([5]; Receptor 5-HT2A, 10 μM): -11.86% | Inhibition 3 ([5]; Receptor 5-HT2A, 10 μM): -8.41% | Inhibition 4 ([5]; Receptor 5-HT2A, 10 μM): 9.68% | Mean % ([5]; Receptor 5-HT2A, 10 μM, mean of Inhibition 1-4): 0.43% | Inhibition 1 ([6]; Receptor 5-HT3, 10 μM): 1.94% | Inhibition 2 ([6]; Receptor 5-HT3, 10 μM): 26.27% | Inhibition 3 ([6]; Receptor 5-HT3, 10 μM): 17.25% | Inhibition 4 ([6]; Receptor 5-HT3, 10 μM): 14.61% | Mean % ([6]; Receptor 5-HT3, 10 μM, mean of Inhibition 1-4): 15.02% | Inhibition 1 ([7]; Receptor 5-HT6, 10 μM): -5.99% | Inhibition 2 ([7]; Receptor 5-HT6, 10 μM): -28.7% | Inhibition 3 ([7]; Receptor 5-HT6, 10 μM): -13.62% | Inhibition 4 ([7]; Receptor 5-HT6, 10 μM): -18.86% | Mean % ([7]; Receptor 5-HT6, 10 μM, mean of Inhibition 1-4): -16.79%
